These results are taken from article PMC8218531 (Structure (London, England : 1993), 2021).

The target of assay [1] is T1, SARS-CoV-2 M^pro (Severe acute respiratory syndrome coronavirus 2, UniProt P0DTD1). To be noted: cited from earlier work.
Assay [2] deals with T1, SARS-CoV-2 M^pro. Put plainly: Enzyme kinetics of M^pro with inhibitors. It is filed as biochemical. To be noted: for in vitro activity against M^pro in words: compounds of this study with hydrophilic groups in S4.
A further assay concerns M^pro. To be noted: covalent inhibitors, ref Dai et al., 2020, Ma et al., Qiao et al., 2021; cited from earlier work.

Structures are written as SMILES. Like-named read-outs stand apart in the source and are kept apart here.

With `N#Cc1ccccc1-c1cc(-c2ccccn2)cn(-c2ccccc2)c1=O` [Perampanel, perampanel], on SARS-CoV-2 M^pro [1], the IC50 was 100 to 250 µM.
On to `CC(C)(O)CCOc1cc(Cl)cc(-c2cc(-c3c[nH]c(=O)[nH]c3=O)cn(-c3cccnc3)c2=O)c1` [Compound 29, 5-(3-(3-Chloro-5-(3-hydroxy-3-methylbutoxy)phenyl)-2-oxo-2H-[1,3'-bipyridin]-5-yl) pyrimidine-2,4(1H,3H)-dione], for which, on SARS-CoV-2 M^pro [2], the IC50 was 250 to 500 nM and the “in vitro activity against M^pro in words” value is “high-nanomolar range”. On SARS-CoV-2 M^pro [2] (compared with compound 11), the “decrease in activity compared with 11” value was “greater than 2 fold”.
In the case of `O=C1CN(CCOc2cc(Cl)cc(-c3cc(-c4c[nH]c(=O)[nH]c4=O)cn(-c4cccnc4)c3=O)c2)CCN1` [Compound 50, 5-(3-(3-Chloro-5-(2-(3-oxopiperazin-1-yl)ethoxy)phenyl)-2-oxo-2H-[1,3'-bipyridin]-5-yl) pyrimidine-2,4(1H,3H)-dione], on SARS-CoV-2 M^pro [2], the “in vitro activity against M^pro in words” value was “high-nanomolar range”.
As for `CC(C)C[C@H](NC(=O)OCc1ccccc1)C(=O)N[C@@H](CC1CCNC1=O)C(O)S(=O)(=O)[O-].[Na+]` (some centres unmarked) [GC-376], in the assay on M^pro, the IC50 in words entry is reported as “Low-nanomolar”.
As to `O=CC(CC1CCNC1=O)NC(=O)C(CC1CCCCC1)NC(=O)c1cc2ccccc2[nH]1` (centres unmarked) [Compound 11a], the IC50 in words entry with M^pro is given as “Low-nanomolar”.
For `O=CC(CC1CCNC1=O)NC(=O)C(Cc1cccc(F)c1)NC(=O)c1cc2ccccc2[nH]1` (centres unmarked) [Compound 11b], in the assay on M^pro, the IC50 in words entry is on record as “Low-nanomolar”.
